Entries after “also recorded” stand apart in the source; their conditions may differ. Peptide text beside a SMILES is read from it.
Experiments:
[1] = system: ocular inflammation; test: Inhibiting effect of derived polypeptides on ocular inflammation according to Examples 2-3
Description: (§1) Derived Polypeptides were prepared as follows. Polypeptides were prepared according to the method in Example 1, and the inhibiting effect of the polypeptides on ocular inflammation was determined according to Examples 2-3.

[2] = system: uveitis in rats; test: LPS-induced uveitis in rats, intravitreal injection of polypeptide; assay type: in vivo, rat; conditions: for protein concentration in rat aqueous humor / exuded cells count in rat anterior chamber / aqueous humor: 24 hours after LPS injection, vs LPS+PBS group; for protein concentration in rat aqueous humor: BCA method, LS22 intravitreally; for exuded cells count in rat anterior chamber / aqueous humor: LS22 10, 50 or 100 μg intravitreally
Description: 8-week old male wistar rats were randomly divided into 5 groups with 10 rats for each, which are blank+PBS, LPS+PBS group, LPS+LS22 10 μg group, LPS+LS22 50 μg group, LPS+LS 22 100 μg group. 0.15 ml of pentobarbital (5.47 g/100 ml normal saline) was intraperitoneally injected into the rats for anesthesia. 100 μl of LPS (2 μg/μl) was subcutaneously injected into the right hindpaw of rats both in treating group and positive control group. An equal volume of normal saline was injected into the same position of the rats in blank+PBS group. 5% tropicamide and 1% tetracaine was dropped on the eye for mydriasis and local anesthesia. Under operating microscope, 10 μl of polypeptide or PBS of equal volume was intravitreally injected of bilateral eyes. The pars plana was vertically punctured by a 29-gauge microsyringe at 1 mm from corneal limbus and the vitreous cavity was reached. The drug liquid was then injected into the center of the vitreous cavity under direct vision and the needle was pulled out quickly after remaining for a few seconds. All above steps were conducted aseptically.
24 hours after LPS was injected, 6 rats in each experimental group were subjected to anterior chamber puncture by 30 G needle under deep anesthesia, and then bilateral aqueous humor was collected. Other 4 rats were sacrificed by cervical dislocation and the eyeballs were taken and immobilized.
The aqueous humor sample was diluted to 1:5 by trypan blue and then added into hemocytometer for manual counting under optical microscope, and total protein concentration was determined by BCA method.
The eyeballs were taken and immobilized by neutral formaldehyde (10%) and stored at 4° C. The sample was embedded into paraffin, cut into sagittal slices with the thickness of 5 μm, and then subjected to HE staining. The iris and ciliary body, anterior chamber, vitreous body and retina of the eyeballs were observed under optical microscope. The exuded cells in anterior chamber and vitreous cavity were counted by the same pathologist.
The experiment date was shown as x±s. A one-way ANOVA was used to compare the exuded cells and total protein concentration between these groups, and P<0.05 represents statistical significance.

[3] = system: RAW264.7 cells; test: Cell viability assay (MTS); assay type: cell-based, mouse; conditions: RAW264.7 cells co-incubated 24 hours
Description: RAW264.7 cells were placed into a 96-well plate for 24-hour adherent culture, and then peptides with different concentrations were added into each well and co-cultured for another 24 hours, while no treatment was taken to the control group. 20 μl of MTS solution was added into each well after 24 hours and cultured for another 3 hours. The culture plate was taken to determine the absorbance of each well at 490 nm.
(§2) The experiment date was shown as x±s. A SPSS 11.0 statistical package was used for statistic analysis and a one-way ANOVA was used to compare RAW264.7 cell viability results, TNF-α and IL-6 level between the groups, and P<0.05 represents statistical significance.

[4] = system: TNF-α; test: TNF-α level in supernatant of LPS-stimulated RAW264.7 cells (ELISA); assay type: cell-based, mouse; conditions: 0.1-10 μM LS22 pretreatment 30 min, LPS 100 ng/mL 24 hours
Description: (§3) Mouse RAW264.7 cells were inoculated on the 24-well cell culture plate (400 μl/well). RAW264.7 was pretreated with 0.1-10 μM of LS22 for 30 min, and then LPS (100 ng/mL) was added and co-incubated for 24 hours. Cell supernatant in each well was collected and TNF-α and IL-6 level was determined by ELISA kits.
as §2, §1

[5] = system: IL-6; test: IL-6 level in supernatant of LPS-stimulated RAW264.7 cells (ELISA); assay type: cell-based, mouse; conditions: 0.1-10 μM LS22 pretreatment 30 min, LPS 100 ng/mL 24 hours
Description: as §3, §2, §1

[6] = Water solubility of the synthesized powder; assay type: physicochemical; conditions: white powder
Description: 7. 120 mg of polypeptide LS22 was obtained as white powder with good water solubility (purification >95%) and then sealed and stored for use at −20° C.

Polypeptide 7: sequence as set forth by SEQ ID NO.: 5 (ALQSLNLSENGLSLDAVLGLV)
anti-inflammation effect ([1]; derived polypeptides, 10 μg group or 10 μM): exhibits an anti-inflammation effect to some extent | anti-inflammation effect compared with LS22 ([1]; weaker than LS22): about 30%

CC[C@H](C)[C@H](NC(=O)[C@H](CO)NC(=O)[C@H](CC(N)=O)NC(=O)[C@H](Cc1c[nH]cn1)NC(=O)[C@H](CO)NC(=O)[C@H](CC(C)C)NC(=O)[C@H](CC(=O)O)NC(=O)[C@@H](N)CC(C)C)C(=O)N[C@@H](CO)C(=O)N[C@@H](CCC(N)=O)C(=O)N[C@@H](CCC(=O)O)C(=O)N[C@@H](CO)C(=O)N[C@@H](C)C(=O)N[C@@H](CC(C)C)C(=O)N[C@@H](Cc1ccc(O)cc1)C(=O)N[C@@H](CC(C)C)C(=O)N[C@@H](CC(C)C)C(=O)N[C@@H](CCC(=O)O)C(=O)N[C@H](C(=O)N[C@@H](CC(C)C)C(=O)N1CCC[C@H]1C(=O)N[C@@H](CO)C(=O)O)[C@@H](C)O [LS22] (H-LDLSHNSISQESALYLLETLPS-OH; N-terminus assumed)
protein concentration in rat aqueous humor [2]: remarkably decreased | protein concentration in rat aqueous humor ([2]; listed as LSS): significantly reduced | exuded cells count in rat anterior chamber / aqueous humor [2]: remarkably reduced | exuded cells count in rat anterior chamber / aqueous humor ([2]; listed as LSS): significantly reduced | inflammatory cells in tissues (histopathologic examination) ([2]; HE staining, anterior chamber, ciliary body, posterior vitreous cavity, after LPS injection): greatly reduced; also recorded: significantly reduced | inhibition of uveitis ([2]; rats, LPS-induced): significantly inhibited uveitis | toxicity to the cells [3]: no toxicity was observed | cell viability compared with the control group ([3]; MTS): no statistically significant difference | LPS-induced TNF-α level in cell supernatant [4]: significantly inhibited; also recorded: remarkably inhibited | LPS-induced IL-6 level in cell supernatant [5]: significantly inhibited; also recorded: remarkably inhibited | water solubility [6]: good
